The target in one data set is T1, Protein RecA (Mycobacterium tuberculosis, UniProt P9WHJ3).
T1 sequence (P9WHJ3 whole entry): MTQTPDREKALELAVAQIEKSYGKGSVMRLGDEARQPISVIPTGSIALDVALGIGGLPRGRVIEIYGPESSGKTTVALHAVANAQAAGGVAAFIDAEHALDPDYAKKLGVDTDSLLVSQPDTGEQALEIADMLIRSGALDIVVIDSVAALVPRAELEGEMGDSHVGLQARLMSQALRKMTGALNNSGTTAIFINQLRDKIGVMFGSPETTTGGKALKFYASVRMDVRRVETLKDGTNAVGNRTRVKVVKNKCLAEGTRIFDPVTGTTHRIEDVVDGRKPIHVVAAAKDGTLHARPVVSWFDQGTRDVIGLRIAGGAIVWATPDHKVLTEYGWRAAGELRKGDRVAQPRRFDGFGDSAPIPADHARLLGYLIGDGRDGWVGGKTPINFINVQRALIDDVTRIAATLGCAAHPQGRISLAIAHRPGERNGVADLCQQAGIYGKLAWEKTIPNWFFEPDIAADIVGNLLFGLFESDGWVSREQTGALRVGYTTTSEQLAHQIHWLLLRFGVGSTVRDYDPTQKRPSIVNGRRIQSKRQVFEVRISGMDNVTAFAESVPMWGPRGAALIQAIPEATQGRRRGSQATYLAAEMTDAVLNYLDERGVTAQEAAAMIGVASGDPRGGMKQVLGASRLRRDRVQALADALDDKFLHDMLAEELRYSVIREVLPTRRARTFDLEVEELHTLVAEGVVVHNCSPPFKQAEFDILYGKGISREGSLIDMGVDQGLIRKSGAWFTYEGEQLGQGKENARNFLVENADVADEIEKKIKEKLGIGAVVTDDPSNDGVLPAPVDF
Put plainly: Fluorescence Cell-Free Homogeneous Dose Retest to Identify Inhibitors of RecA-Intein Splicing Activity. [Related pubchem assays (depositor defined):AID2097, AID2223, AID489010, AID492950]. The format is functional.

The target in data set [1] is T2, Replicative DNA helicase DnaB (Mycobacterium tuberculosis, UniProt P9WMR3).
T2 sequence (P9WMR3 whole entry): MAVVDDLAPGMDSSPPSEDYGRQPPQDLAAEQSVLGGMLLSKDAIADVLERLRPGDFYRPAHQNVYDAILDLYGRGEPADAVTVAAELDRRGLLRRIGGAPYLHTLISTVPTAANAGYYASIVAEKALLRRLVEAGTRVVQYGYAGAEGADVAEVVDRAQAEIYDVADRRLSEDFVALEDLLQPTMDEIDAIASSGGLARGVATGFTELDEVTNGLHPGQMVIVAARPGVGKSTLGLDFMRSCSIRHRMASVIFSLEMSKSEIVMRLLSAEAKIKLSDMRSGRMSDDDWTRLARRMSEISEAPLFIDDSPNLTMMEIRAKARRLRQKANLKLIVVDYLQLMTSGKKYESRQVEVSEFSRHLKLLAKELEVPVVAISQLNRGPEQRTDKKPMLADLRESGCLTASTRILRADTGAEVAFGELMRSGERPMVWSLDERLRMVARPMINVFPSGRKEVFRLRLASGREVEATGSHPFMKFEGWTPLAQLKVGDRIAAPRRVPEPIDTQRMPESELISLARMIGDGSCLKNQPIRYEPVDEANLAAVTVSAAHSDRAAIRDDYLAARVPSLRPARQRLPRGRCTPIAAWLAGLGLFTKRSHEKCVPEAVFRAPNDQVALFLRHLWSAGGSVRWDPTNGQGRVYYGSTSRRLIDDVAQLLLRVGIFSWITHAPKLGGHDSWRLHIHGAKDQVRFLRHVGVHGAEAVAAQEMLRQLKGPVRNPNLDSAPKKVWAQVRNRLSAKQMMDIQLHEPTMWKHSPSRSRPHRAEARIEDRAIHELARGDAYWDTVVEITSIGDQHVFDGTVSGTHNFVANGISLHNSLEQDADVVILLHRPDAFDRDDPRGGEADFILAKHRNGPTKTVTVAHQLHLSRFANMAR
Put plainly: DnaB intein splicing inhibitors, dose response, biochemical, cell-free fluorescence (AID 449749). The format is functional.

Data set [2] relates to BJ. Nature of the data set: cells. The format is functional, cell-based. To be noted: Homo sapiens.
Data set [3] is described as follows: Fluorescence-based cell-based high throughput dose response assay for inhibitors of the interaction of nucleotide-binding oligomerization domain containing 2 (NOD2) and the receptor-interacting serine-threonine kinase 2 (RIPK2). The format is functional. To be noted: Homo sapiens.
The test system of data set [4] is BJ. Put plainly: growth inhibition of engineered Ras-driven BJ cells – cell-based, alamar blue fluorescence, cherrypicked samples, dose response (AID 2631).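 Also: confirmatory dose-response assay in RAS-dependent BJ fibroblasts engineered with TERT, LT and ST, with cytotoxicity read by fluorescence.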 The format is functional. The conditions noted are these: Homo sapiens.
Data set [5] in a line: luciferase reporter signal suppression in cells – H4 neuroglioma cells, luminescence, dose response (AID 1990). The data set is classed as functional, cell-based.
The nature of data set [6]: loss of viability in HepG2 cells – cell-based, CellTiter-Glo, cherry-picked, cytotoxicity control for Shn3 inhibitor project, dose response (AID 624134). The format is functional.
Data set [7] can be described thus: Luminescence Cell-Based Dose Response HTS to Identify Inhibitors of 5'UTR Stem-Loop Driven Prion Protein mRNA Translation in H4 Neuroglioblastoma Cells. [Related pubchem assays: 1827 (Project Summary), 1813 (Primary HTS)]. The format is functional.
The next data set has as its target T3, Caspase-6 (Homo sapiens, UniProt P55212).
T3 sequence (P55212 whole entry): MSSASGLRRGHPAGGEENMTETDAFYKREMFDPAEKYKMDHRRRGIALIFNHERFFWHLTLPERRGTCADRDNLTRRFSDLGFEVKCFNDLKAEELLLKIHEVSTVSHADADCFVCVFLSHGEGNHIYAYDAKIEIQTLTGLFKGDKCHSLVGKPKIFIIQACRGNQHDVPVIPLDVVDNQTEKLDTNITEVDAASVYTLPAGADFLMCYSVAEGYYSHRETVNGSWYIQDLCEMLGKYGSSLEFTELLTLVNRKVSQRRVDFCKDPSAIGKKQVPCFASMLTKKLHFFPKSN
Put plainly: inhibition of CASP6 peptide cleavage – biochemical, VEID-R110 fluorescence, cherry-pick, dose response (AID 720632).

In the next data set the test system is INS1. Put plainly: INS-1E survival protection against cytokine death – cell-based, luminescence, retest, dose response (AID 449756).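 Also: cell death triggered by IL-1 beta plus TNF-alpha plus IFN-gamma mixture; protective hits raise ATP signal compared with cytokine alone wells.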 The data set is classed as functional. The conditions noted are these: Rattus norvegicus.
The nature of data set [8]: DRD fibroblast viability loss – cell-based, non-viral oncogenic, luminescence, dose response (AID 1934). To be noted: Homo sapiens. The data set is classed as functional.
Data set [9] in a line: reduction of Shn3 3'UTR-driven luciferase in osteoblasts – cell-based, Clone20 osteoblasts, firefly luciferase, cherry-picked, dose response (AID 624132).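 Also: firefly luciferase luminescence from reporter carrying the Shn3 3'UTR in osteoblasts.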 The format is functional.
The subject of data set [10] is BJ. Nature of the data set: BJ-TERT fibroblast viability loss – cell-based, RAS-independent, luminescence, dose response (AID 1933). The conditions noted are these: Homo sapiens. The data set is classed as functional.
Data set [11] in a line: alpha-synuclein stem-loop luciferase translation blockers – H4 neuroglioma cells, luminescence, confirmation (AID 1988). The data set is classed as functional, cell-based.
Data set [12] is described as follows: non-specific 3'UTR reporter inhibition in Clone20-Shn3RL – cell-based, Renilla luciferase, cherry-picked, counter-screen for Shn3 inhibitor project, dose response (AID 624133). The data set is classed as functional.
Data set [13] relates to BJ. Put plainly: BJ-TERT-LT-ST fibroblast viability loss – cell-based, RAS-independent, luminescence, dose response (AID 1935).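 Also: BJ fibroblasts immortalized with TERT plus LT and ST oncogenes.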 The format is functional. To be noted: Homo sapiens.
A short description of data set [14]: viability loss in Vero cells – cytotoxicity control for Vif-APOBEC3G degradation inhibitor project, dose response (AID 1117358). The format is functional. To be noted: Vero.
The next data set concerns H9c2. Nature of the data set: cells. The conditions noted are these: Rattus norvegicus, H9c2, Myocardium. The format is functional, cell-based.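 Also: confirmatory concentration-response retest of ultra-high-throughput screening hits for modulation of myocardial damage; cell death induced by hydrogen peroxide oxidative stress; compound pretreatment for 60 min then peroxide exposure for 2 h; potency is for protecting the cells against peroxide damage rather than for killing them.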
A further data set has as its target Cytochrome P450 2C9 (Homo sapiens, UniProt P11712).
For a further data set, the target named is T4, Cytochrome P450 1A2 (Homo sapiens, UniProt P05177).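 Also: PubChem cytochrome P450 panel assay, CYP1A2 panel member.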
T4 sequence (P05177 whole entry): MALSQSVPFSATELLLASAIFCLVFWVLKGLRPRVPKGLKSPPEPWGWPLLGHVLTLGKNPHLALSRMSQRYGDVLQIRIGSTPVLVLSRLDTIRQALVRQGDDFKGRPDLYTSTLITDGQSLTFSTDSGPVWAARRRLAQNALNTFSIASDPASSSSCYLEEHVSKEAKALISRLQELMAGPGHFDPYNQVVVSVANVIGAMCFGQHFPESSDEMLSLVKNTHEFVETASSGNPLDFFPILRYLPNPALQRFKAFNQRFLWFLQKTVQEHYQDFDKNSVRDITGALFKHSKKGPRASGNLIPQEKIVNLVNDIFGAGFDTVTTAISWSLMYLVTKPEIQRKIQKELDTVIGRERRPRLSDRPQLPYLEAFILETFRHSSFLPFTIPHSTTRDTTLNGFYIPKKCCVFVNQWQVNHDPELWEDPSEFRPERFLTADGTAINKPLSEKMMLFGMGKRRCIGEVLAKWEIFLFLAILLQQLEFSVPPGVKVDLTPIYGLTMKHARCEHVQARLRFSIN

For the next data set, the target named is Cytochrome P450 2C19 (Homo sapiens, UniProt P33261). Put plainly: Cytochrome panel assay with activity outcomes. Panel member name: p450-cyp2c19 Compounds with AC50 equal or less than 10 uM are considered active. The data set is classed as functional. The conditions noted are these: read-out: AC50.
Sequence of Cytochrome P450 2C19 (P33261 whole entry): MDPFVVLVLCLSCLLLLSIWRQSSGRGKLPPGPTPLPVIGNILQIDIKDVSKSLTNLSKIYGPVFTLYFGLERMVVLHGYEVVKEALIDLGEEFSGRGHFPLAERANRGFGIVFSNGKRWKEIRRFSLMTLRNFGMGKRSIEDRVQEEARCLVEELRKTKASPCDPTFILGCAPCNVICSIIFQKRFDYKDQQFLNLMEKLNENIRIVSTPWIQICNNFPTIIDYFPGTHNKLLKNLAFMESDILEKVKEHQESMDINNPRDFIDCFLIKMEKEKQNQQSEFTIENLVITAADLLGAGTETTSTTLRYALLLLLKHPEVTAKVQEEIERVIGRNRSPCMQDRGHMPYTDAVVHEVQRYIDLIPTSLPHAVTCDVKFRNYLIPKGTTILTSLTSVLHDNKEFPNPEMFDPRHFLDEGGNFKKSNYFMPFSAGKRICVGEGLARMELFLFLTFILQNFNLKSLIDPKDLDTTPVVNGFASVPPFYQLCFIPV

Activity calls are given as the source filed them.

Sequence of Cytochrome P450 2C9 (P11712 whole entry): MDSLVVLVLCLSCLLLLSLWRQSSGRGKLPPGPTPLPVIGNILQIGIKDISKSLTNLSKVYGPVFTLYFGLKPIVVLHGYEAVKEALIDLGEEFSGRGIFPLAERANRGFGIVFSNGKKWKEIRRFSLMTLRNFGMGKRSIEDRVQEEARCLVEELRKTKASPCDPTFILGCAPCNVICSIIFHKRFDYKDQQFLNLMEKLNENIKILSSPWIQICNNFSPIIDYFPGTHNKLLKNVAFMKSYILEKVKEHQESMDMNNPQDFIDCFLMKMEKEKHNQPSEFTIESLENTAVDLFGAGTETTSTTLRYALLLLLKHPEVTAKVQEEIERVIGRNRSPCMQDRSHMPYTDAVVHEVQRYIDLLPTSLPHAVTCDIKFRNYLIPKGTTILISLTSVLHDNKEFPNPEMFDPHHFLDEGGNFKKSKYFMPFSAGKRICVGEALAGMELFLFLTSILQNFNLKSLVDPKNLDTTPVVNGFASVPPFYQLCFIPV

In the case of `O=C(Nc1ccc2nc3n(c(=O)c2c1)CCCCC3)c1c(F)ccc([N+](=O)[O-])c1F`, the 50% effective concentration (EC50) on Protein RecA is 5.17 µM (active); with BJ [2], > 150 µM (inconclusive); in the data set on BJ [4], 0.571 µM (active); in data set [5] it was > 120 µM (not active); in data set [7], > 120 µM (not active); in [8] it was 4.04 µM (inconclusive). Also, the values for the EC50 (with BJ [10]; in [11]; in the data set on BJ [13]) were 17.7 µM (active), > 120 µM (not active) and 50.7 µM (inconclusive), respectively. Besides, the AC50 in [1] was 14.8 µM (active); in data set [6] it was 12.5 µM (active); at Caspase-6 it was 4.39 µM (active); with INS1, 6.28 µM (active); in data set [9], 2.3 µM (active); in [12] it was 4.65 µM (active). Moreover, the IC50 in data set [3] was 8.8 µM (active).
On to `Cc1ccc(C)c2nc(O)c(CN(Cc3ccc4c(c3)OCO4)Cc3nnnn3Cc3ccco3)cc12`, for which the CC50 in [14] is > 40 µM (active). Further, the IC50 in the data set on H9c2 is > 79 µM (inactive).
As for `O=C(NNC(=O)c1ccccc1-n1cccc1)c1ccc(Cl)c(Cl)c1`, in data set [14], the CC50 is > 40 µM (active). Further, the AC50 result is “inconclusive” at Cytochrome P450 2C9, 25.1 µM (inconclusive) on Cytochrome P450 1A2 and 3.98 µM (inconclusive) at Cytochrome P450 2C19.

The values above are taken from ChEMBL document CHEMBL1201862, “PubChem BioAssay data set” (2004).
